Legend:
[1] = Stability of rucaparib in rat plasma under different storage conditions (UPLC-MS/MS); assay type: in vitro ADME; conditions: n = 5
Protocol: The stability experiment was conducted at three different QCs (5.0, 200, and 400 ng/mL). It was carried out under various storage conditions, with each condition having five replicates (n = 5). These storage conditions encompassed stability within the analyzer (lasting for 4 h at 10°C), long-term storage (for 3 weeks at −80°C), short-term storage (for 3 h at room temperature) and freeze-thaw cycles (conducted three times).
The stability of rucaparib in rat plasma was examined under four distinct storage conditions. These included short-term storage (lasting 3 h at room temperature), exposure to three freeze-thaw cycles (transitioning from −80°C to room temperature), long-term storage (at −80°C for 21 days), and a 4 h placement in an autosampler maintained at 10°C.

[2] = Drug-drug interaction (DDI) pharmacokinetic study of rucaparib with or without myricetin in rats
Protocol: Twelve Sprague-Dawley (SD) male rats were provided with an appropriate environment with unrestricted water and food for seven consecutive days prior to the experiment. The day prior to the study, the rats underwent a 12-h period of fasting while being allowed unfettered access to water. Subsequently, they were randomly assigned to two groups (n = 6). Group A was received an oral dose of rucaparib at 20 mg/kg, while Group B was received an oral administration of rucaparib at 20 mg/kg along with myricetin at 50 mg/kg. The doses of rucaparib ([Augustine et al., 2019]) and myricetin ([Ye et al., 2024]) administered were determined based on prior literatures. Rucaparib was formulated in corn oil with myricetin prepared in 0.5% carboxymethylcellulose sodium (CMC-Na) solution. Group B rats were administered a single gavage of 50 mg/kg of myricetin, while Group A rats were received an equivalent volume of CMC-Na solution. Subsequently, at the 30 min mark, both groups were administered a single dose of 20 mg/kg of rucaparib. Before dosing (designated as 0 h) and at 1.5, 3, 4, 5, 6, 8, 12, 24 and 36 h post-dosing, 0.3 mL of plasma samples were drawn from the caudal vein. These samples were collected into heparin-containing tubes and then centrifuged at 8,000 rpm at 4°C for 10 min. Afterwards, the plasma was transferred to new tubes and preserved at −80°C for further analysis.
The DAS 3.0 software was used to calculate the pharmacokinetic parameters of rucaparib using a non-compartmental model. The key pharmacokinetic parameters of the two groups were analyzed using an independent samples t-test in SPSS 24.0. The p-value of less than 0.05 indicated a significant difference between the two groups. Mean plasma concentration-time curves were generated with GraphPad Prism 9.0 software (GraphPad Software Inc., California, United States).

[3] = design: method as in Ross and Kasum, 2002; conditions: ref Ross and Kasum, 2002; cited from earlier work
CYP2D6 = system: CYP2D6; design: method as in Lee et al., 2012; conditions: ref Lee et al., 2012; read-out: half-maximal inhibitory concentrations value, CYP2D6 metabolism; cited from earlier work
[4] = male, Sprague-Dawley, rat, in vivo, po, 20 mg/kg

## CNCc1ccc(-c2[nH]c3cc(F)cc4c3c2CCNC4=O)cc1 [Rucaparib]
[1]; added 5.0 ng/mL, Autosampler 10°C, 4 h
  Stability RE (%): 1.5%
[1]; added 5.0 ng/mL, Room temperature, 3 h
  Stability RE (%): −4.2%
[1]; added 5.0 ng/mL, Three freeze-thaw
  Stability RE (%): −10.1%
[1]; added 5.0 ng/mL, −80°C, 3 weeks
  Stability RE (%): 5.7%
[1]; added 200 ng/mL, Autosampler 10°C, 4 h
  Stability RE (%): 1.4%
[1]; added 200 ng/mL, Room temperature, 3 h
  Stability RE (%): −11.5%
[1]; added 200 ng/mL, Three freeze-thaw
  Stability RE (%): −1.6%
[1]; added 200 ng/mL, −80°C, 3 weeks
  Stability RE (%): 9.2%
[1]; added 400 ng/mL, Autosampler 10°C, 4 h
  Stability RE (%): 8.1%
[1]; added 400 ng/mL, Room temperature, 3 h
  Stability RE (%): −3.1%
[1]; added 400 ng/mL, Three freeze-thaw
  Stability RE (%): −11.6%
[1]; added 400 ng/mL, −80°C, 3 weeks
  Stability RE (%): 1.4%
[2]; [4]
  AUC(0-inf): 1320 ng·h/mL
  AUC(0-t): 1220 ng·h/mL
  CL/F: 294 mL/min/kg
  Cmax: 126 ± 58.5 ng/mL
  Tmax: 4.25 ± 1.78 h
  half-life: 10.9 ± 3.41 h

## O=c1c(O)c(-c2cc(O)c(O)c(O)c2)oc2cc(O)cc(O)c12 [myricetin]
[3]
  bioavailability: low bioavailability
[2]; rats, 50 mg/kg myricetin + 20 mg/kg rucaparib vs rucaparib alone, independent samples t-test, p < 0.05
  effect on plasma exposure to rucaparib: no significant effect
CYP2D6
  IC50: 57 µM

— PMC12146338, “Bioanalytical assay for the quantification of rucaparib in rat plasma using UPLC-MS/MS: development, and validation for interaction with myricetin” (Frontiers in Pharmacology, 2025)
